According to patent US10647723B2, “Thiochromene type compound and use thereof” (SOGANG UNIVERSITY RESEARCH FOUNDATION, priority 2015, dated 2020):

Tests used:
[1] = Solubility comparison: cloud point on adding water to a DMSO solution; format: physicochemical; settings: upon dissolution in DMSO
[2] = UV-Vis absorption spectrum; format: physicochemical; settings: compared to compounds 1 and 2; FIG. 5

melting point | water added at which a cloud point formed [1] | absorbance at 355 nm [2] | SMILES
77 to 82 °C (dec.) |  |  | CCCn1c2c(c3ccccc31)C(SCCC(=O)ON1C(=O)CCC1=O)Sc1ccccc1-2 (stereo not drawn) [3c, 2,5-Dioxopyrrolidin-1-yl 3-((11-propyl-6,11-dihydrothiochromeno[4,3-b]indol-6-yl)thio)propanoate]
90 to 96 °C (dec.) | 30% | high absorbance | Cn1c2c(c3ccccc31)C(SCCC(=O)ON1C(=O)CCC1=O)Sc1ccccc1-2 (stereo not drawn) [3a, 2,5-Dioxopyrrolidin-1-yl 3-((11-methyl-6,11-dihydrothiochromeno[4,3-b]indol-6-yl)thio)propanoate]
76 to 81 °C (dec.) |  |  | CCCCn1c2c(c3ccccc31)C(SCCC(=O)ON1C(=O)CCC1=O)Sc1ccccc1-2 (stereo not drawn) [3d, 2,5-Dioxopyrrolidin-1-yl 3-((11-butyl-6, 11-dihydrothiochromeno[4,3-b]indol-6-yl)thio)propanoate]
82 to 87 °C (dec.) |  |  | CCn1c2c(c3ccccc31)C(SCCC(=O)ON1C(=O)CCC1=O)Sc1ccccc1-2 (stereo not drawn) [3b, 2,5-Dioxopyrrolidin-1-yl 3-((11-ethyl-6,11-dihydrothiochromeno[4,3-b]indol-6-yl)thio)propanoate]
